Patent US9512128B2 (BAYER CROPSCIENCE AG, priority 2012, dated 2016)
Read-outs that look alike come from different tables or passages of the source.

Tests used:
[1] = system: greenhouse red spider mite (Tetranychus urticae); assay: Tetranychus urticae spray test, OP-resistant (TETRUR); format: in vivo; conditions: after 6 days, bean leaf discs
Protocol: 4. Tetranychus urticae Spray Test, OP-Resistant (TETRUR)
• Solvents: 78.0 parts by weight of acetone • 1.5 part by weight of dimethylformamide • Emulsifier: 0.5 part by weight of alkylaryl polyglycol ether
To produce a suitable preparation of active compound, 1 part by weight of active compound is mixed with the stated amounts of solvents and emulsifier, and the concentrate is diluted with emulsifier-containing water to the desired concentration.
Discs of bean leaves (Phaseolus vulgaris) which are infested by all stages of the greenhouse red spider mite (Tetranychus urticae) are sprayed with an active compound preparation of the desired concentration.
After 6 days, the efficacy in % is determined. 100% means that all of the spider mites have been killed; 0% means that none of the spider mites have been killed.

[2] = log P by HPLC on reversed-phase columns (C 18), EEC directive 79/831 Annex V.A8; format: physicochemical; conditions: for logP[a]: method [a]; for logP[b]: method [b]
Protocol: The log P values were determined according to EEC directive 79/831 Annex V.A8 by HPLC (High Performance Liquid Chromatography) on reversed-phase columns (C 18), using the methods below:
[a] The LC-MS determination in the acidic range is carried out at pH 2.7 with 0.1% aqueous formic acid and acetonitrile (contains 0.1% formic acid) as mobile phases; linear gradient from 10% acetonitrile to 95% acetonitrile.
[b] The LC-MS determination in the neutral range is carried out at pH 7.8 using the mobile phases 0.001 molar aqueous ammonium bicarbonate solution and acetonitrile; linear gradient from 10% acetonitrile to 95% acetonitrile.

[3] = reversed-phase C18 HPLC column, pH 2.7, acidic range, pH 2.7, 0.1% aqueous formic acid / acetonitrile, read-out: log P[a]
[4] = reversed-phase C18 HPLC column, pH 7.8, neutral range, pH 7.8, 0.001 molar aqueous ammonium bicarbonate / acetonitrile, read-out: log P[b]

Compound: Cc1ccc(-n2c(C)nc3cnn(C)c3c2=O)cc1[S+]([O-])CC(F)(F)F (stereo not drawn) [Compound 145]
- efficacy in % (spider mites killed) ([1]; application rate 500 g/ha): 100%

Compound: Cc1cc(F)c(-n2cnc3c(C)n(C)nc3c2=O)cc1SCC(F)(F)F [Compound 213]
- efficacy in % (spider mites killed) ([1]; application rate 500 g/ha): 100%

Compound: Cc1cc(F)c(-n2c(C)nc3cnn(C)c3c2=O)cc1SCC(F)(F)F [Compound 139]
- efficacy in % (spider mites killed) ([1]; application rate 500 g/ha): 100%

Compound: Cn1ncc2ncn(-c3cc([S+]([O-])CC(F)(F)F)c(Cl)cc3F)c(=O)c21 (stereo not drawn) [Compound 156]
- efficacy in % (spider mites killed) ([1]; application rate 500 g/ha): 100%

Compound: Cc1cc(C)c([S+]([O-])CC(F)(F)F)cc1-n1c(C)nc2cnn(C)c2c1=O (stereo not drawn) [Compound 135]
- efficacy in % (spider mites killed) ([1]; application rate 500 g/ha): 90%

Compound: Cc1cc2ncn(-c3cc([S+]([O-])CC(F)(F)F)c(C)cc3F)c(=O)c2o1 (stereo not drawn) [Compound 222]
- efficacy in % (spider mites killed) ([1]; application rate 500 g/ha): 100%

Compound: CCc1nsc2ncn(-c3cc([S+]([O-])CC(F)(F)F)c(C)cc3F)c(=O)c12 (stereo not drawn) [Compound 203]
- efficacy in % (spider mites killed) ([1]; application rate 500 g/ha): 100%

Compound: Cc1cc(C)c(-n2c(C)nc3cnn(C)c3c2=O)cc1SCC(F)(F)F [Compound 131]
- efficacy in % (spider mites killed) ([1]; application rate 500 g/ha): 90%

Compound: Cc1cc(F)c(-n2cnc3nn(C)cc3c2=O)cc1SCC(F)(F)F [Compound 173]
- efficacy in % (spider mites killed) ([1]; application rate 500 g/ha): 90%

Compound: Cn1ncc2nnn(-c3cc(SCC(F)(F)F)c(Cl)cc3F)c(=O)c21 [Compound 150]
- efficacy in % (spider mites killed) ([1]; application rate 500 g/ha): 100%

Compound: Cc1cc(C)c(-n2nnc3cnn(C)c3c2=O)cc1SCC(F)(F)F [Compound 133]
- efficacy in % (spider mites killed) ([1]; application rate 500 g/ha): 90%

Compound: Cc1nc2c(=O)n(-c3cc([S+]([O-])CC(F)(F)F)c(C)cc3C)c(C)nc2s1 (stereo not drawn) [Compound 186]
- efficacy in % (spider mites killed) ([1]; application rate 500 g/ha): 90%

Compound: Cc1cc(C)c(-n2cnc3cnn(C)c3c2=O)cc1SCC(F)(F)F [Compound 130]
- efficacy in % (spider mites killed) ([1]; application rate 500 g/ha): 100%

Compound: Cc1cc(F)c(-n2cnc3c(C)nn(C)c3c2=O)cc1SCC(F)(F)F [Compound 128]
- efficacy in % (spider mites killed) ([1]; application rate 500 g/ha): 100%

Compound: Cc1cc(C)c([S+]([O-])CC(F)(F)F)cc1-n1nnc2cnn(C)c2c1=O (stereo not drawn) [Compound 132]
- efficacy in % (spider mites killed) ([1]; application rate 500 g/ha): 100%

Compound: Cc1nc2c(=O)n(-c3cc([S+]([O-])CC(F)(F)F)c(C)cc3F)cnc2s1 (stereo not drawn) [Compound 190]
- efficacy in % (spider mites killed) ([1]; application rate 500 g/ha): 90%

Compound: Cc1cc(F)c(-n2cnc3c(C)scc3c2=O)cc1[S+]([O-])CC(F)(F)F (stereo not drawn) [Compound 220]
- efficacy in % (spider mites killed) ([1]; application rate 500 g/ha): 90%

Compound: Cc1cc(Cl)c(-n2nnc3cnn(C)c3c2=O)cc1SCC(F)(F)F [Compound 154]
- efficacy in % (spider mites killed) ([1]; application rate 500 g/ha): 90%

Compound: Cc1cc(F)c(-n2cnc3cn(C)nc3c2=O)cc1[S+]([O-])CC(F)(F)F (stereo not drawn) [Compound 216]
- efficacy in % (spider mites killed) ([1]; application rate 500 g/ha): 100%

Compound: Cc1cc(F)c(-n2c(C)nc3nn(C)cc3c2=O)cc1SCC(F)(F)F [Compound 174]
- efficacy in % (spider mites killed) ([1]; application rate 100 g/ha): 90%

Compound: Cc1cc(F)c(-n2cnc3nsc(C(C)(C)C)c3c2=O)cc1[S+]([O-])CC(F)(F)F (stereo not drawn) [Compound 192]
- efficacy in % (spider mites killed) ([1]; application rate 500 g/ha): 90%

Compound: Cc1cc(Cl)c(-n2cnc3cnn(C)c3c2=O)cc1[S+]([O-])CC(F)(F)F (stereo not drawn) [Compound 158]
- efficacy in % (spider mites killed) ([1]; application rate 500 g/ha): 100%

Compound: Cc1nc2c(=O)n(-c3cc([S+]([O-])CC(F)(F)F)c(C)cc3F)c(C)nc2s1 (stereo not drawn) [Compound 185]
- efficacy in % (spider mites killed) ([1]; application rate 500 g/ha): 90%

Compound: Cc1cc(F)c(-n2c(C)nc3cnn(C(C)C)c3c2=O)cc1[S+]([O-])CC(F)(F)F (stereo not drawn) [Compound 166]
- efficacy in % (spider mites killed) ([1]; application rate 500 g/ha): 100%

Compound: CCn1ncc2c(=O)n(-c3cc([S+]([O-])CC(F)(F)F)c(C)cc3F)cnc21 (stereo not drawn) [Compound 126]
- efficacy in % (spider mites killed) ([1]; application rate 500 g/ha): 90%

Compound: Cc1cc(Cl)c(-n2c(C)nc3cnn(C)c3c2=O)cc1SCC(F)(F)F [Compound 152]
- efficacy in % (spider mites killed) ([1]; application rate 500 g/ha): 90%

Compound: Cc1cc(F)c(-n2cnc3c(C)nsc3c2=O)cc1SCC(F)(F)F [Compound 180]
- efficacy in % (spider mites killed) ([1]; application rate 500 g/ha): 90%

Compound: CCn1cc2c(=O)n(-c3cc(SCC(F)(F)F)c(C)cc3F)cnc2n1 [Compound 176]
- efficacy in % (spider mites killed) ([1]; application rate 500 g/ha): 90%

Compound: Cc1cc(F)c(-n2cnc3onc(C(F)(F)F)c3c2=O)cc1SCC(F)(F)F [Compound 197]
- efficacy in % (spider mites killed) ([1]; application rate 500 g/ha): 100%

Compound: Cc1cc(F)c(-n2cnc3csc(C)c3c2=O)cc1SCC(F)(F)F [Compound 217]
- efficacy in % (spider mites killed) ([1]; application rate 500 g/ha): 90%

Compound: Cc1nc2cnn(C)c2c(=O)n1-c1cc(SCC(F)(F)F)c(Cl)cc1Cl [Compound 144]
- efficacy in % (spider mites killed) ([1]; application rate 500 g/ha): 90%

Compound: Cc1cc(Cl)c(-n2cnc3cnn(C)c3c2=O)cc1SCC(F)(F)F [Compound 151]
- efficacy in % (spider mites killed) ([1]; application rate 500 g/ha): 100%

Compound: O=c1c2ccsc2ncn1-c1cc([S+]([O-])CC(F)(F)F)c(Cl)cc1Cl (stereo not drawn) [Compound 98]
- logP[a] [2]: 2.53
- logP[b] [2]: 2.53

Compound: Cc1cc(F)c(-n2cnc3onc(C(C)C)c3c2=O)cc1SCC(F)(F)F [Compound 193]
- efficacy in % (spider mites killed) ([1]; application rate 500 g/ha): 100%

Compound: Cc1cc(F)c(I)cc1SCC(F)(F)F [VIIa-1-I, 1-Fluoro-2-iodo-5-methyl-4-[(2,2,2-trifluoroethyl)sulphanyl]benzene]
- chromatographic logP [2, 3]: 4.44
- chromatographic logP [2, 4]: 4.44

Compound: Cc1cc(F)c(-n2cnc3ncn(C)c3c2=O)cc1[S+]([O-])CC(F)(F)F (stereo not drawn) [Compound 178]
- efficacy in % (spider mites killed) ([1]; application rate 500 g/ha): 100%

Compound: Cn1ncc2ncn(-c3cc(SCC(F)(F)F)c(Cl)cc3Cl)c(=O)c21 [Compound 140]
- efficacy in % (spider mites killed) ([1]; application rate 500 g/ha): 100%

Compound: Cn1ncc2c(=O)n(-c3ccc(Cl)c([S+]([O-])CC(F)(F)F)c3)cnc21 (racemic) [Compound 28]
- logP[a] [2]: 1.80
- logP[b] [2]: 1.80

Compound: O=[N+]([O-])c1cc(SSc2ccc(Cl)c([N+](=O)[O-])c2)ccc1Cl [XIX-4, 1,1′-Disulphanediylbis(4-chloro-3-nitrobenzene)]
- chromatographic logP ([2]; pH 2.7, log P[a]): 4.58
- chromatographic logP ([2]; pH 7.8, log P[b]): 4.58

Compound: Cc1cc(F)c(-n2cnc3c(C)n(C)nc3c2=O)cc1[S+]([O-])CC(F)(F)F (stereo not drawn) [Compound 214]
- efficacy in % (spider mites killed) ([1]; application rate 500 g/ha): 90%

Compound: Nc1cc(SCC(F)(F)F)c(Cl)cc1F [IVa-2, 4-Chloro-2-fluoro-5-[(2,2,2-trifluoroethyl)sulphanyl]aniline]
- chromatographic logP [2, 3]: 3.02
- chromatographic logP [2, 4]: 3

Compound: Cc1cc(F)c(-n2cnc3c(ncn3C)c2=O)cc1[S+]([O-])CC(F)(F)F (stereo not drawn) [Compound 179]
- efficacy in % (spider mites killed) ([1]; application rate 500 g/ha): 100%

Compound: O=c1c2ccsc2ncn1-c1cc(SCC(F)(F)F)c(Cl)cc1Cl [Compound 90]
- logP[a] [2]: 3.51
- logP[b] [2]: 3.42

Compound: Cn1ncc2c(=O)n(-c3cc([S+]([O-])CC(F)(F)F)c(Cl)cc3Cl)cnc21 (racemic) [Compound 4]
- logP[a] [2]: 2.11
- logP[b] [2]: 2.09

Compound: Cc1cc(C)c(-n2c(C)nc3c(cnn3C)c2=O)cc1SCC(F)(F)F [Compound 6]
- logP[a] [2]: 2.92
- logP[b] [2]: 2.86

Compound: Cc1cc(F)c(-n2cnc3c(Cl)c(Cl)sc3c2=O)cc1SCC(F)(F)F [Compound 111]
- logP[a] [2]: 4.38
- logP[b] [2]: 4.24

Compound: Cc1cc(F)c(NC(=O)c2cnn(C)c2[N+](=O)[O-])cc1SCC(F)(F)F [N-{2-Fluoro-4-methyl-5-[(2,2,2-trifluoroethyl)sulphanyl]phenyl}-1-methyl-5-nitro-1H-pyrazole-4-carboxamide]
- chromatographic logP [2, 3]: 3.22
- chromatographic logP [2, 4]: 3.16

Compound: Cc1cc(F)c(B(O)O)cc1SCC(F)(F)F [VIIIa-1, {2-Fluoro-4-methyl-5-[(2,2,2-trifluoroethyl)sulphanyl]phenyl}boronic acid]
- chromatographic logP [2, 3]: 2.34
- chromatographic logP [2, 4]: 2.41

Compound: Cc1cc(F)c(NC(=O)C(F)(F)F)cc1SCC(F)(F)F [Compound X-1, 2,2,2-Trifluoro-N-{2-fluoro-4-methyl-5-[(2,2,2-trifluoroethyl)sulphanyl]phenyl}acetamide]
- chromatographic logP [2, 3]: 3.31

Compound: O=c1c2ccsc2ncn1-c1ccc(C(F)(F)F)c(SCC(F)(F)F)c1 [Compound 94]
- logP[a] [2]: 3.27
- logP[b] [2]: 3.21

Compound: Nc1ccc(Cl)c(S)c1 [XVI-3, 5-Amino-2-chlorobenzenethiol]
- chromatographic logP [2, 3]: 1.64

Compound: Cc1nc2c(=O)n(-c3cc([S+]([O-])CC(F)(F)F)c(Cl)cc3Cl)cnc2s1 (stereo not drawn) [Compound 74]
- logP[a] [2]: 2.22
- logP[b] [2]: 2.17

Compound: Cc1cc(F)c(-n2c(C)nc3c(cnn3CC(F)(F)F)c2=O)cc1[S+]([O-])CC(F)(F)F (racemic) [Compound 22]
- logP[a] [2]: 2.52

Compound: Cc1nn(C)c2ncn(-c3ccc(C#N)c([S+]([O-])CC(F)(F)F)c3)c(=O)c12 (stereo not drawn) [Compound 35]
- logP[a] [2]: 1.74
- logP[b] [2]: 1.70

Compound: Cc1ccc(Br)cc1S(=O)(=O)Cl [5-Bromo-2-methylbenzenesulphonyl chloride]
- chromatographic logP [2, 3]: 3.73
- chromatographic logP [2, 4]: 3.74

Compound: CC(=O)Nc1cc(SC(C)=O)c(C)cc1F [XVII-1, S-(5-Acetamido-4-fluoro-2-methylphenyl)ethanethioate]
- chromatographic logP [2, 3]: 1.78

Compound: Nc1ccc(Cl)c(SCC(F)(F)F)c1 [IVa-3, 4-Chloro-3-[(2,2,2-trifluoroethyl)sulphanyl]aniline]
- chromatographic logP [2, 3]: 2.64
- chromatographic logP [2, 4]: 2.69

Compound: N#Cc1ccc(Br)cc1SCC(F)(F)F [VIIa-9, 4-Bromo-2-[(2,2,2-trifluoroethyl)sulphanyl]benzonitrile]
- chromatographic logP [2, 3]: 3.21
- chromatographic logP [2, 4]: 3.16
